Reference: US12611443B2, “Methods and compositions related to therapeutic peptides for cancer therapy” (THE UNIVERSITY OF CHICAGO, priority 2018, dated 2026)

Assays:
CD95 = CD95 cleavage in cancer cells by western blotting; assay type: cell-based
Experimental: FIGS. 1A-1K. ELANE cleaves CD95 to selectively kill cancer cells. (A): Heatmap summary of ELANE's effects on survival, stress, and apoptosis pathways in cancer cells and healthy cells. (B-C): Cancer cells were treated with ELANE (100 nM) and CD95 cleavage was assessed by western blotting using anti-N-terminal (B) or anti-C-terminal antibodies (C). *, lower molecular weight CD95 fragment. (D): Cancer cells or non-cancer cells were transduced to overexpress CD95 proteins, and effects on ELANE-mediated apoptosis were quantified by ANXAS at 30 min. n=2/group. See FIG. 1I for transduction and CD95 over-expression. (E): Cleavage of recombinant human CD95 N-terminal (aa 1-173) or C-terminal (aa 212-335) proteins by ELANE was assessed by SDS-PAGE and Coomassie blue staining. (F): Bands from (E) were digested with trypsin and analyzed by mass spectrometry to identify putative ELANE cleavage sites (i.e., peptides with non-tryptic ends). Major non-tryptic peptides were quantified by ion chromatograms. (G): Schematic of ELANE cleavage sites in CD95. […] (H): Cleavage of recombinant peptides corresponding to aa 214-231 and aa 317-335 in CD95 by ELANE was monitored by mass spectrometry. […] Effect of Dynasore on cancer cell killing capability of ELANE (measured by calcein-AM). n=6/group. […]

cancer cells = assay: ELANE internalization by cancer cells and effect of endocytosis inhibitor; assay type: cell-based; conditions: cancer cell lysates, 30 mins
Experimental: FIGS. 1A-1K. ELANE cleaves CD95 to selectively kill cancer cells. (A): Heatmap summary of ELANE's effects on survival, stress, and apoptosis pathways in cancer cells and healthy cells. (B-C): Cancer cells were treated with ELANE (100 nM) and CD95 cleavage was assessed by western blotting using anti-N-terminal (B) or anti-C-terminal antibodies (C). *, lower molecular weight CD95 fragment. (D): Cancer cells or non-cancer cells were transduced to overexpress CD95 proteins, and effects on ELANE-mediated apoptosis were quantified by ANXAS at 30 min. n=2/group. See FIG. 1I for transduction and CD95 over-expression. (E): Cleavage of recombinant human CD95 N-terminal (aa 1-173) or C-terminal (aa 212-335) proteins by ELANE was assessed by SDS-PAGE and Coomassie blue staining. (F): Bands from (E) were digested with trypsin and analyzed by mass spectrometry to identify putative ELANE cleavage sites (i.e., peptides with non-tryptic ends). Major non-tryptic peptides were quantified by ion chromatograms. (G): Schematic of ELANE cleavage sites in CD95. […] (H): Cleavage of recombinant peptides corresponding to aa 214-231 and aa 317-335 in CD95 by ELANE was monitored by mass spectrometry. (I): Cancer cells or non-cancer cells were treated with fluorescein-labeled ELANE for 10 min and uptake was visualized by immunofluorescence. (J): ELANE catalytic activity in cancer cell lysates following exposure to ELANE for 30 mins in the presence and absence of Dynasore (60 μM endocytosis inhibitor). Effect of Dynasore on cancer cell killing capability of ELANE (measured by calcein-AM). n=6/group. (K): Cancer cells or non-cancer cells were transduced to overexpress various CD95 proteins, and cell viability in the absence of ELANE was determined by calcein-AM. n=10/group. *, p<0.05 Student's t-test.

[1] = test system: survival, stress, and apoptosis pathways in normal or non-cancer cells; assay: Killing program in normal or non-cancer cells; assay type: cell-based
Experimental: (§1) Western Blot Analysis. Cells were lysed with 1% SDS containing protease and phosphatase inhibitors (Sigma), and protein was quantified with the BCA Protein Assay Kit (Pierce). Proteins (10-20 μg) were resolved on 10%, 12.5%, 15%, or 20% SDS-PAGE gels depending on the target protein, transferred to PVDF membranes (Millipore), blocked with 5% BSA (Sigma) in 0.1% TBS/Tween-20 at RT for 2 hrs, stained with primary and secondary antibodies, and visualized using the ECL detection kit (Biorad) and a LI-COR imager. Antibodies—Antibodies against pERK (4370), ERK (4695), pNFκB (3033), NFκB (8242), pJNK (4668), JNK (9252), CASP3 (9662), PARP (9542), H2AX (2595), TUBB (2125) were from Cell Signaling Technology. Antibodies against γH2AX (05-636-I, Millipore), ELANE (68672, Abcam), N-terminal CD95 (3070R, BioVision), and C-terminal CD95 (60196, Proteintech).
(§2) Mitochondrial ROS measurements. Cells were treated with various doses of ELANE for 30 min, washed, labeled with the CM-H2DCFDA dye (ThermoFisher Scientific, 10 μM) for 30 min at 37° C., and fluorescence was quantified by flow cytometry.

[2] = test system: human/murine cancer cells; assay: In vitro cell viability of cancer cells (calcein-AM, CASP3, ANXA5); assay type: cell-based; conditions: ELANE 3 μg/ml
Source text: Cell lines. The ovarian cancer cell lines—CAOV3, OVCAR3, OVCAR4, OVCAR5, A2780, A2780/CP70, HeyA8, TykNu, SKOV3, ID8, and ID8p53-/- were a gift from Dr. Ernst Lengyel, University of Chicago. The breast cancer cell lines—MDA-MB-231, MDA-MB-231.BM1, MCF-7, M6C, E0771, and E0771.LMB were a gift from Dr. Marsha Rosner, University of Chicago. The colon carcinoma cell line RKO, glioblastoma cancer cell line T98G, osteosarcoma cell lines U-2OS and Saos-2, and the hepatocellular carcinoma cell line HepG2 were a gift from Dr. Kay McLeod, University of Chicago. The lung cancer cell line NCI-H552 was a gift from Dr. Stephanie Huang, University of Chicago, and A549 and LLC1 cells were purchased from ATTC. The melanoma cell lines—B16F10, Mel888, Mel1106, and SK-MEL-28 cells were a gift from Dr. Thomas Gajewski, University of Chicago. The pancreatic cancer cell line PANC1 was a gift from Dr. Yamuna Krishnan, University of Chicago. The leukemia cell line K562 was a gift from Dr. Amittha Wickrema, University of Chicago.
The prostate cancer cell lines—CWR22Rv1, LAPC4, and LNCaP were a gift from Dr. Donald Vander Griend, University of Chicago. The neuroblastoma cell lines—SK-N-BE(2) and NBL-WN cells were a gift from Dr. Lucy Godley, University of Chicago.
Neutrophil media collections. Freshly isolated human or murine neutrophils were plated in serum-free DMEM for 24 h. Conditioned media was collected, spun at 500×g for 5 min, and media protein levels were determined with a Bradford assay (Biorad).
PMN media manipulations. For boiling, PMN media was boiled at 95° C. for 5 min and spun at 15,000×g for 10 min to remove precipitated proteins. For dialysis, PMN media was placed into a Slide-a-Lyzer™ cassette (3.5 kDa cutoff, ThermoFisher Scientific) and dialyzed against 2×4L of PBS at 4° C. for 4 h. For PMSF-inactivation, PMN media was treated with PMSF (1 mM, Sigma) or A1AT (42 nM, Athens Research & Technology) and incubated at room temperature for up to 2 h. Residual PMSF was eliminated with a PD-10 desalting column (GE Healthcare Life). Inhibition of ELANE catalytic activity was confirmed using a chromogenic substrate activity assay (see below). For serum-spiking experiments, human, mouse, or fetal bovine serum (1% or 10%) was added to PMN media prior to or after exposing cancer cells. For immune-depletion studies, ELANE or ECP were immunoprecipitated using anti-ELANE (N2C3, GeneTx) or anti-ECP (MB S2535165, MyBioSource) coupled to Pierce™ Protein A/G Magnetic Beads (ThermoFisher Scientific).
In vitro cell viability assays. […] Luminescence was measured using a Victor X3 luminometer (PerkinElmer).

[3] = test system: survival, stress, and apoptosis pathways in cancer cells; assay: Killing program in cancer cells (western blot, mitochondrial ROS); assay type: cell-based; conditions: all 6 cancer cell lines tested
Experimental: as §1, §2

E0771 or MEL888 tumors = assay: Resistance to ELANE, repeated treatment of tumors in vivo and killing ex vivo; parameters: species or system mice; conditions: once/day for 7 days, isolated cancer cells ex vivo
Source text: To explore whether cancer cells could acquire resistance to ELANE, a combination of in vitro and in vivo approaches were used.

ELANE: neutrophil elastase, a serine protease released by human PMNs
loss of full-length CD95 after cleavage (CD95): did not result in loss of full-length CD95
CD95 cleavage in cancer cells (CD95; ELANE 100 nM): cleaved CD95 in all cancer cells tested
catalytic activity of internalized ELANE (cancer cells): retained its catalytic activity
killing program in normal or non-cancer cells [1]: did not induce this program in all normal or non-cancer cells tested
apoptosis in cancer cell lines [2]: effectively induced apoptosis in all cancer cell lines tested
DNA damage (γH2AX) [3]: induced DNA damage
mitochondrial ROS (MT ROS) [3]: increased MT ROS
pro-apoptotic pathways (cCASP3 and cPARP) [3]: activated pro-apoptotic pathways
survival pathways (phosphorylation of ERK, NFκB, or JNK) [3]: suppressed at least one survival pathway
acquired resistance after repeated treatment in vivo (E0771 or MEL888 tumors): did not attenuate ELANE's ability to kill the isolated cancer cells ex vivo
